According to patent publication US9289463B2, “Octreotide-modified nanomedicine for cancer treatment or cancer palliative care” (NANOSION CO., LTD., priority 2010, dated 2016):

Assays:
TT cells [1] = test: Cytotoxicity test using non-drug-encapsulating liposomes; assay type: cell-based, human; details: 0.042-8.4 μM Oct, 96 hours, no drug encapsulated
Description: Next, a cytotoxicity test was conducted using non-CPT-11-encapsulating liposomes, in order to evaluate the effect of the ligand (Oct) on cytotoxicity. […] After rinsing the cells with PBS, a coloring reagent was added and the absorbance at 450 nm was measured.
In FIG. 4, the four bars for each concentration are, from the left, the cell survival rates (%) for free Oct, Empty 1.6Oct-CL, Empty 4.4Oct-CL and Empty SL, respectively.

TT cells [2] = test: Competitive inhibition test of intracellular uptake; assay type: cell-based, human; details: free Oct in 20-fold molar excess (84 nmol/ml), 37° C., 2 hours
Description: A competitive inhibition test was conducted to examine whether or not the intracellular uptake observed in Example 2 takes place via somatostatin receptor (SSTR).
The competitive inhibition is shown schematically in FIG. 2(A).

TT cells [3] = test: Effect of CPT-11-encapsulating liposomes in vivo, TT cell tumor-bearing mice (four mice per group)
Description: The following test was conducted to examine the in vivo effect of CPT-11-encapsulating Oct-modified liposomes. After transplanting 10^7 TT cells into mice (ICR nu/nu mice, 6-week-old, female, Oriental Yeast Co., Ltd.), tumors with tumor volumes of […] formed. To four mice in each group there were administered unmodified liposomes (CL) at 10 mg/kg body weight, as the CPT-11 amount, liposomes modified with 1.6 mol % Oct-PEG-DSPE (1.6Oct-CL), and liposomes modified with 1.6 mol % Oct-PEG-DSPE and 0.9% mol % PEG-DSPE (1.6Oct-SL). The administration was twice (1st and 4th days) through the caudal vein. As a control there was administered physiological saline and free CPT-11 (30 mg/kg), three times (1st, 4th and 7th days). The tumor size and body weight were periodically measured. […] The column headed “% ILS” in Table 3 contains the values calculated by the formula: [(mean survival days of treated group)−(mean survival days of control group)/(mean survival days of control group)]×100(%), with physiological saline as the control. The column headed “Median” in Table 3 contains the median values for survival time (days) for each group consisting of N animals.

TT cells [4] = test: Cytotoxicity test using CPT-11-encapsulating liposomes; assay type: cell-based; details: Homo sapiens
Description: TT cells were seeded into a 96-well plate at a density of 10^4 cells/well, and free CPT-11, 1.6Oct-CL or SL was added thereto at various concentrations prior to incubation for 48 hours, 72 hours and 96 hours. Next, after rinsing the cells with PBS, a coloring reagent (Cell Counting kit-8, Dojindo Laboratories) was added at 10 μL per well (100 μL), the absorbance at 450 nm was measured and IC50 (μM) was calculated.

[5] = liposomes 10 mg/kg as CPT-11 twice, free CPT-11 30 mg/kg three times

SMILES | cytotoxicity (cell survival rate) (TT cells [1]) | effect of competitor on intracellular uptake of DXR-encapsulating 1.6Oct-CL (TT cells [2]) | Survival time Median (TT cells [3]; liposomes 10 mg/kg as CPT-11, caudal vein, 1st and 4th days, free CPT-11 30 mg/kg, 1st, 4th and 7th days) | survival time and survival rate (life-lengthening effect) (TT cells [3]; [5]) | tumor size (TT cells [3]; [5]) | Survival time % ILS (TT cells [3]; physiological saline as control, liposomes 10 mg/kg as CPT-11 twice, free CPT-11 30 mg/kg three times) [%] | IC50 (TT cells [4]; 48 hrs incubation) [µM] | IC50 (TT cells [4]; 72 hrs incubation) [µM] | IC50 (TT cells [4]; 96 hrs incubation) [µM]
C[C@@H](O)[C@@H]1NC(=O)[C@H](CCCCN)NC(=O)[C@@H](Cc2c[nH]c3ccccc23)NC(=O)[C@H](Cc2ccccc2)NC(=O)[C@@H](NC(=O)[C@H](N)Cc2ccccc2)CSSC[C@@H](C(=O)N[C@H](CO)[C@@H](C)O)NC1=O [free Oct, octreotide] | Cytotoxicity was observed | did not affect | – | – | – | – | – | – | –
CCc1c2c(nc3ccc(OC(=O)N4CCC(N5CCCCC5)CC4)cc13)-c1cc3c(c(=O)n1C2)COC(=O)[C@]3(O)CC [Free CPT-11, irinotecan] | – | – | 88 (4) days | no life-lengthening effect was observed | tumor size increased | 30.4 | 13.4 | 6.6 | 2.2
